According to US8604053B2, “TRPV1 antagonists” (AbbVie Inc., priority 2008, dated 2013):

Tests used:
[1] = Rat telemetry protocol, core body temperature; assay type: in vivo; conditions: core body temperature of rats one hour post dosing, 100 μmol/kg p.o., relative to vehicle
Procedure, shortened: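 Male Sprague Dawley rats (225–250 g) with intraperitoneal telemetry transmitters, 2-week recovery. Single oral 100 μmol/kg dose in 10% EtOH/20% Tween-80/70% PEG-400; core body temperature recorded every 15 min over 24 h.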

[2] = target: T1, CYP2C9 (Homo sapiens, UniProt P11712); experiment: CYP2C9 inhibition assay; assay type: in vitro ADME; conditions: human liver microsomes, substrate Luciferin-H; for inhibition at 25 min, 2.2 µM: pH 7.4, probe Luciferin-H (100 μM final), read-out: CYP2C9 % inh @ 2.2 μM
T1 construct: human liver microsomes (BD Gentest); tissue BD Gentest; host or cells: human liver microsomes
T1 sequence (P11712 whole entry): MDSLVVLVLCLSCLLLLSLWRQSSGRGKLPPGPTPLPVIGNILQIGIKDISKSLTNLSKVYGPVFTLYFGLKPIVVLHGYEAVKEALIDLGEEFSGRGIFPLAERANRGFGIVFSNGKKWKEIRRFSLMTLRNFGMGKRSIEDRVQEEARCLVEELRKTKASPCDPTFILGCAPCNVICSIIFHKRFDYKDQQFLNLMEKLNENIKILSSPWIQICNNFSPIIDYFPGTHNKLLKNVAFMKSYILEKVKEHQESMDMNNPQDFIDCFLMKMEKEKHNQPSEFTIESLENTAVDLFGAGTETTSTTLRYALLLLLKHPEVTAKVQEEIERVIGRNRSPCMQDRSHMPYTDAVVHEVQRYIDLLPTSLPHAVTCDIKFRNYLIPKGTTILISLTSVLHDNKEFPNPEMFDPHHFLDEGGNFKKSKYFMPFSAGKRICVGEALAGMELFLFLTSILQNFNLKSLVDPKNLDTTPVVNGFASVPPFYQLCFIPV
Experimental: (§1) Stock solutions of test compounds were assayed in 96-well format for their ability to inhibit CYP2C9, CYP2D6, or CYP3A4 mediated metabolism of test substrates. Luciferin-H was used as the substrate for CYP2C9; 3-[2-(N,N-diethyl-N-methylammonium)ethyl]-7-methoxy-4-methylcoumarin (AMMC) was used as the substrate for CYP2D6; 7-benzyloxyquiniline (BZQ) was used as the substrate for CYP3A4. For each subtype, positive controls (sulphaphenazole in the case of CYP2C9; quinidine in the case of CYP2D6, ketoconazole in the case of CYP3A4) were used to validate assay results run in duplicate.
(§2) Pre-Incubation Mixture Preparation for CYP2C9 and CYP2D6: A pre-incubation mixture was prepared by combining 100 mM phosphate buffer (9.12 mL; pH 7.4), human liver microsomes (BD Gentest, 240 itt; final concentration: 0.4 mg/mL), and 10 mM nicotinamide adenine dinucleotide phosphate in 65.4 mM MgCl2 hexahydrate (120 μL; final concentration: 125 μM and 818 μM, respectively). To this was mixture is added a ‘regeneration’ mixture (120 μL) of 333 mM glucose-6-phosphate and 40 U/mL glucose-6-phosphate dehydrogenase in 5 mM sodium citrate (final concentration: 4 mM, 0.5 U/mL, and 0.06 mM, respectively).
Substrate Mixture Preparation for CYP2C9: To a solution of 25 mM phosphate buffer, (2.16 mL, pH 7.4) was added 5 mM Luciferin-H (Promega P450 Glo Assay V8792, 240 μL; final solution concentration 0.5 mM, final assay concentration 100 μM).
CYP2C9 Inhibiton Assay: To each well in the assay plate containing varying concentrations of test compound or control compound in DMSO (10 μL) Pre-Incubation Mixture (40 itt) was added to the wells and the assay plate was pre-incubated for 10 minutes at 37° C., with shaking or rocking. CYP2C9 Substrate Mixture (10 μL) was added to all wells and the assay plate was incubated for an additional 25 minutes at 37° C., with shaking or rocking. Final DMSO concentration was 1%. Luciferin-H detection reagent (Promega kit V8792, 50 μL) was added to all wells. The plate was then vortexed at ambient temperature for between 20 minutes and 2 hours, and the luminescence of each well was then read and recorded.

[3] = target: T2, CYP2D6 (Homo sapiens, UniProt P10635); experiment: in vitro; assay type: in vitro ADME; conditions: microsomes; for inhibition at 25 min, 2.2 µM: human, pH 7.4
T2 construct: human liver microsomes (BD Gentest); tissue BD Gentest; host or cells: human liver microsomes
T2 sequence (P10635 whole entry): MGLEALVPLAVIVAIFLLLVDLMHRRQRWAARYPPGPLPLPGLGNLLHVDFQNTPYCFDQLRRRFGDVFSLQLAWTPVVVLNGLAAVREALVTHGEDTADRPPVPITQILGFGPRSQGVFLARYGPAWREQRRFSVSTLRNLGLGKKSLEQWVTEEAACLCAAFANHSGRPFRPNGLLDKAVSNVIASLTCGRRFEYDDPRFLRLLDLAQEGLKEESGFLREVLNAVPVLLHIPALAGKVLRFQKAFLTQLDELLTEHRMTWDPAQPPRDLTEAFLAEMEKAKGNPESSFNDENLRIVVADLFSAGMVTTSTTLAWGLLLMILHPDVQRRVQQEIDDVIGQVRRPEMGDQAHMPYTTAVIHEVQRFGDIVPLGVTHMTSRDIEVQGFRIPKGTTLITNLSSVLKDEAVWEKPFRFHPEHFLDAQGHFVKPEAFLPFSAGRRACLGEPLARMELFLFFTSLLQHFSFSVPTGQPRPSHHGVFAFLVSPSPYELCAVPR
Experimental: as §1, §2
Substrate Mixture Preparation for CYP2D6: To a solution of 100 mM phosphate buffer, (2.80 mL, pH 7.4) was added 10 mM AMMC in acetonitrile (14 itt; final solution concentration 0.05 mM, final assay concentration 10 μM).
CYP2D6 Inhibiton Assay: To each well in the assay plate containing varying concentrations of test compound or control compound in DMSO (10 μL), Pre-Incubation Mixture (40 μL) was added to the wells and the assay plate was pre-incubated for 10 minutes at 37° C., with shaking or rocking. A pre-read of each well was performed at 390 nm and 460 nm extinction/emission. CYP2D6 Substrate Mixture (10 μL) was added to all wells and the assay plate was incubated for an additional […] at 37° C., with shaking or rocking. Final DMSO concentration was 1%. A post-read of each well was then performed at 390 nm and 460 nm extinction/emission.

[4] = Assessment of hemodynamic profile in anesthetized rat; assay type: in vivo; conditions: i.v. infusion 3, 10 and 30 mg/kg/30 minutes/dose, relative to vehicle control group
Experimental: Male Sprague-Dawley rats were anesthetized with Inactin, instrumented, and allowed to stabilize. Following a 30 minute baseline period, test compound was infused via intravenous administration at 3, 10, and 30 mg/kg/30 minutes/dose in a low volume PEG-400 vehicle (1 mL/kg) or 20:40:40 dimethylacetamide:propylene glycol:PEG-400 vehicle (1 mL/kg). A separate group of animals received infusion of vehicle alone. Mean arterial pressure (MAP) and heart rate (HR) were observed and recorded.

CC1(C)C[C@@H](NC(=O)Nc2cccc3cnccc23)c2cc(F)ccc2O1 [Example 5, N-[(4R)-6-fluoro-2,2-dimethyl-3,4-dihydro-2H-chromen-4-yl]-N′-isoquinolin-5-ylurea]
Δ Temp (° C.) [1]: −0.2 °C
inhibition at 25 min, 2.2 µM [2]: 55%
inhibition at 25 min, 2.2 µM [3]: 100%
Change in MAP or HR ≧ 15% ? [4]: Yes (An observed increase or decrease of greater than 15% in MAP (mean arterial pressure) or HR (heart rate) in one or more of the animals in the test group relative to the vehicle control group is indicated as “Yes” in the table)

Cc1cc2c(NC(=O)N[C@@H]3CC(C)(C)Oc4c(F)cccc43)cccc2cn1 [Example 119, N-[(4R)-8-fluoro-2,2-dimethyl-3,4-dihydro-2H-chromen-4-yl]-N′-(3-methylisoquinolin-5-yl)urea]
Δ Temp (° C.) [1]: 0.0 °C
inhibition at 25 min, 2.2 µM [2]: 2.1%
inhibition at 25 min, 2.2 µM [3]: 8.7%
Change in MAP or HR ≧ 15% ? [4]: Yes (An observed increase or decrease of greater than 15% in MAP (mean arterial pressure) or HR (heart rate) in one or more of the animals in the test group relative to the vehicle control group is indicated as “Yes” in the table)

Cc1cc2c(NC(=O)N[C@@H]3CC(CF)(CF)Oc4cc(F)ccc43)cccc2cn1 [Example 96, N-[(4R)-7-fluoro-2,2-bis(fluoromethyl)-3,4-dihydro-2H-chromen-4-yl]-N′-(3-methylisoquinolin-5-yl)urea]
Δ Temp (° C.) [1]: 0.0 °C
inhibition at 25 min, 2.2 µM [2]: 4.1%
inhibition at 25 min, 2.2 µM [3]: 7.9%
Change in MAP or HR ≧ 15% ? [4]: Yes (An observed increase or decrease of greater than 15% in MAP (mean arterial pressure) or HR (heart rate) in one or more of the animals in the test group relative to the vehicle control group is indicated as “Yes” in the table)

Cc1cc2c(NC(=O)N[C@@H]3CC(C)(C)Oc4cc(C(F)(F)F)ccc43)cccc2cn1 [Example 118, N-[(4R)-2,2-dimethyl-7-(trifluoromethyl)-3,4-dihydro-2H-chromen-4-yl]-N′-(3-methylisoquinolin-5-yl)urea]
Δ Temp (° C.) [1]: 0.0 °C
inhibition at 25 min, 2.2 µM [2]: 7.8%
inhibition at 25 min, 2.2 µM [3]: 21%
Change in MAP or HR ≧ 15% ? [4]: Yes (An observed increase or decrease of greater than 15% in MAP (mean arterial pressure) or HR (heart rate) in one or more of the animals in the test group relative to the vehicle control group is indicated as “Yes” in the table)

Cc1cc2c(NC(=O)N[C@@H]3C[C@@](C)(C(F)F)Oc4cc(Cl)ccc43)cccc2cn1 (single isomer, unassigned) [Example 124]
Δ Temp (° C.) [1]: 0.0 °C
inhibition at 25 min, 2.2 µM [2]: 1.2%
inhibition at 25 min, 2.2 µM [3]: 8.4%
Change in MAP or HR ≧ 15% ? [4]: No (an observed increase or decrease of less than or equal to 15% in MAP (mean arterial pressure) or HR (heart rate) in the test group of animals relative to the vehicle control group is indicated as “No” in the table)

CCC1(CC)C[C@@H](NC(=O)Nc2cccc3cnccc23)c2cc(F)ccc2O1 [Example 28, N-[(4R)-2,2-diethyl-6-fluoro-3,4-dihydro-2H-chromen-4-yl]-N′-isoquinolin-5-ylurea]
Δ Temp (° C.) [1]: −0.2 °C
inhibition at 25 min, 2.2 µM [2]: 35%
inhibition at 25 min, 2.2 µM [3]: 98%
Change in MAP or HR ≧ 15% ? [4]: Yes (An observed increase or decrease of greater than 15% in MAP (mean arterial pressure) or HR (heart rate) in one or more of the animals in the test group relative to the vehicle control group is indicated as “Yes” in the table)

Cc1cc2c(NC(=O)N[C@@H]3CC(C)(C)Oc4cc(F)ccc43)c(F)ccc2cn1 [Example 123, N-[(4R)-7-fluoro-2,2-dimethyl-3,4-dihydro-2H-chromen-4-yl]-N′-(6-fluoro-3-methylisoquinolin-5-yl)urea]
Δ Temp (° C.) [1]: 0.0 °C
inhibition at 25 min, 2.2 µM [2]: 19%
inhibition at 25 min, 2.2 µM [3]: 42%
Change in MAP or HR ≧ 15% ? [4]: No (an observed increase or decrease of less than or equal to 15% in MAP (mean arterial pressure) or HR (heart rate) in the test group of animals relative to the vehicle control group is indicated as “No” in the table)

N-[(4R)-6,8-difluoro-2,2-dimethyl-3,4-dihydro-2H-chromen-4-yl]-N-(3-methylisoquinolin-5-yl)urea [Example 98]
Δ Temp (° C.) [1]: 0.0 °C
CYP2C9 % inh @ 2.2 μM [2]: 8.4%
CYP2D6 % inh @ 2.2 μM) ([3]; 2.2 µM): 3.7%
Change in MAP or HR ≧ 15% ? [4]: Yes (An observed increase or decrease of greater than 15% in MAP (mean arterial pressure) or HR (heart rate) in one or more of the animals in the test group relative to the vehicle control group is indicated as “Yes” in the table)

Cc1cc2c(NC(=O)N[C@@H]3CC(CF)(CF)Oc4c(F)cc(F)cc43)cccc2cn1 [Example 120, N-[(4R)-6,8-difluoro-2,2-bis(fluoromethyl)-3,4-dihydro-2H-chromen-4-yl]-N′-(3-methylisoquinolin-5-yl)urea]
Δ Temp (° C.) [1]: −0.5 °C
inhibition at 25 min, 2.2 µM [2]: 11%
inhibition at 25 min, 2.2 µM [3]: 6.2%
Change in MAP or HR ≧ 15% ? [4]: No (an observed increase or decrease of less than or equal to 15% in MAP (mean arterial pressure) or HR (heart rate) in the test group of animals relative to the vehicle control group is indicated as “No” in the table)

Cc1cc2c(NC(=O)N[C@@H]3CC(CF)(CF)Oc4ccccc43)cccc2cn1 [Example 101, N-[(4R)-2,2-bis(fluoromethyl)-3,4-dihydro-2H-chromen-4-yl]-N′-(3-methylisoquinolin-5-yl)urea]
Δ Temp (° C.) [1]: 0.0 °C
inhibition at 25 min, 2.2 µM [2]: 11%
inhibition at 25 min, 2.2 µM [3]: 11%
Change in MAP or HR ≧ 15% ? [4]: Yes (An observed increase or decrease of greater than 15% in MAP (mean arterial pressure) or HR (heart rate) in one or more of the animals in the test group relative to the vehicle control group is indicated as “Yes” in the table)

Cc1cc2c(NC(=O)N[C@@H]3C[C@](C)(CF)Oc4cc(Cl)ccc43)cccc2cn1 (single isomer, unassigned) [Example 121]
Δ Temp (° C.) [1]: 0.0 °C
inhibition at 25 min, 2.2 µM [2]: 15%
inhibition at 25 min, 2.2 µM [3]: 8%
Change in MAP or HR ≧ 15% ? [4]: Yes (An observed increase or decrease of greater than 15% in MAP (mean arterial pressure) or HR (heart rate) in one or more of the animals in the test group relative to the vehicle control group is indicated as “Yes” in the table)

Cc1cc2c(NC(=O)N[C@@H]3CC(CF)(CF)Oc4cc(Cl)ccc43)cccc2cn1 [Example 84, N-[(4R)-7-chloro-2,2-bis(fluoromethyl)-3,4-dihydro-2H-chromen-4-yl]-N′-(3-methylisoquinolin-5-yl)urea]
Δ Temp (° C.) [1]: 0.0 °C
inhibition at 25 min, 2.2 µM [2]: 3.7%
inhibition at 25 min, 2.2 µM [3]: 49%
Change in MAP or HR ≧ 15% ? [4]: No (an observed increase or decrease of less than or equal to 15% in MAP (mean arterial pressure) or HR (heart rate) in the test group of animals relative to the vehicle control group is indicated as “No” in the table)

Cc1cc2c(NC(=O)N[C@@H]3CC(C)(C)Oc4cc(Cl)ccc43)cccc2cn1 [Example 97, N-[(4R)-7-chloro-2,2-dimethyl-3,4-dihydro-2H-chromen-4-yl]-N′-(3-methylisoquinolin-5-yl)urea]
Δ Temp (° C.) [1]: 0.4 °C
inhibition at 25 min, 2.2 µM [2]: 17%
inhibition at 25 min, 2.2 µM [3]: 19%
Change in MAP or HR ≧ 15% ? [4]: Yes (An observed increase or decrease of greater than 15% in MAP (mean arterial pressure) or HR (heart rate) in one or more of the animals in the test group relative to the vehicle control group is indicated as “Yes” in the table)
